Measured values from paper PMC6562543 (Marine Drugs, 2019).

Assays:
mice [1] = test system: mice; set-up: species or system Kunming mice (ICR mice for intranasal treatment); conditions: mouse, in vivo
mice [2] = test system: mice; set-up: species or system Kunming mice; conditions: mouse, in vivo, iv
mice [3] = conditions: mouse, in vivo; SEM
[4] = in vivo; cited from earlier work
[5] = rat, in vivo, cited from earlier work

CSCC[C@@H]1NC(=O)[C@H](CC(C)C)NC(=O)[C@H](CCCNC(=N)N)NC(=O)[C@H](CO)NC(=O)[C@@H]2CSSC[C@@H]3NC(=O)[C@H](CO)NC(=O)CNC(=O)[C@H]([C@@H](C)O)NC(=O)[C@H](CSSC[C@H](N)C(=O)N[C@@H](CCCCN)C(=O)NCC(=O)N[C@@H](CCCCN)C(=O)NCC(=O)N[C@@H](C)C(=O)N[C@@H](CCCCN)C(=O)N2)NC(=O)[C@H](CSSC[C@@H](C(N)=O)NC(=O)[C@H](CCCCN)NC(=O)CNC(=O)[C@H](CO)NC(=O)[C@H](CCCNC(=N)N)NC3=O)NC(=O)[C@H](CC(=O)O)NC(=O)[C@H](Cc2ccc(O)cc2)NC1=O [MVIIA, ω-Conotoxin MVIIA]
time after which the effect disappeared (mice [1]): ≤ 4 h
time of maximal antinociceptive effect (mice [1]): 1 h
antinociceptive effect (mice [1]; iv): no effect
effect on writhing numbers (mice [2]): failed to attenuate writhing numbers
stay time on rotarod (mice [3]): 74.5 ± 20.28 s
antinociceptive potency relative to intrathecal morphine [4]: 100 times
potency relative to morphine [4]: 100 times
AUC0-6 in CSF ([5]; iv): 4.98 ± 0.97 µg·min/mL
Cmax in CSF ([5]; iv): 37.78 ± 6.8 ng/mL
Tmax in CSF ([5]; iv): ~ 2 h
bioavailability in CSF following intranasal versus intravenous administration [5]: two fold greater
